Reference: patent publication US9828379B2 (priority 2013, dated 2017)

What was measured:
Assay in all cases: In vitro competitive activity-based protein profiling (Table 2, % inhibition at 1 μM)
Format in all cases: biochemical
MAGL = biological target: T1, MAGL (Mus musculus, UniProt O35678); details: read-out: % Inhibition at 1 μM MAGL
T1 sequence (O35678 1-303): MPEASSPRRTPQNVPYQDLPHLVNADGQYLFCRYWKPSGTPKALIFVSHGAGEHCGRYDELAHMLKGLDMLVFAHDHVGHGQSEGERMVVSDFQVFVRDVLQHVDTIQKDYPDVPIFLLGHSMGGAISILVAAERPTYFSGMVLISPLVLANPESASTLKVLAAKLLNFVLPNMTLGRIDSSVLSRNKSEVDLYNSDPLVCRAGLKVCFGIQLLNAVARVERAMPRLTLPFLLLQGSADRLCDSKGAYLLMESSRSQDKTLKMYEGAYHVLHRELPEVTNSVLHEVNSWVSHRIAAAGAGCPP
Protocol: After 30 min, FP—Rh (1.0 μL, 50 μM in DMSO) was added and the mixture was incubated for another 30 min at 37° C. Reactions were quenched with SDS loading buffer (50 μL-4×) and run on SDS-PAGE.
Cell lysates were diluted with mock proteomes for use in competitive ABPP experiments.

ABHD6 = biological target: T2, ABHD6 (Mus musculus, UniProt Q8R2Y0); details: read-out: % Inhibition at 1 μM ABHD6
T2 sequence (Q8R2Y0 1-336): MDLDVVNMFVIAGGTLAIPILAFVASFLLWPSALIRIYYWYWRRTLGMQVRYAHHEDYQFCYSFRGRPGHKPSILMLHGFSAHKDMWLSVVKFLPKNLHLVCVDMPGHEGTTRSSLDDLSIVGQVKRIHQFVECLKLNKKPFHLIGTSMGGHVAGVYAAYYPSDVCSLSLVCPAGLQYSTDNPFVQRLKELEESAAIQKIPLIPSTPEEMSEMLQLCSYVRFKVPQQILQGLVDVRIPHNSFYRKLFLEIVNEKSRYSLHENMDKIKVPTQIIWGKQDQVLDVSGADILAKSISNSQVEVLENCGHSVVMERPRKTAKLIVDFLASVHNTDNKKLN
Protocol: (§1) After 30 min, FP—Rh (1.0 μL, 50 μM in DMSO) was added and the mixture was incubated for another 30 min at 37° C. Reactions were quenched with SDS loading buffer (50 μL-4×) and run on SDS-PAGE. Following gel imaging, serine hydrolase activity was determined by measuring fluorescent intensity of gel bands corresponding to MAGL, ABHD6 and FAAH using ImageJ 1.43 u software.
(§2) hMAGL was expressed in HEK293T cells according to previously reported methods (see Niphakis, Long, and Blankman, J. L., et al. (2007) Chem. Biol. 14:1347-1356). Cell lysates were diluted with mock proteomes for use in competitive ABPP experiments.

FAAH = biological target: T3, FAAH (Mus musculus, UniProt O08914); details: read-out: % Inhibition at 1 μM FAAH
T3 sequence (O08914 1-579): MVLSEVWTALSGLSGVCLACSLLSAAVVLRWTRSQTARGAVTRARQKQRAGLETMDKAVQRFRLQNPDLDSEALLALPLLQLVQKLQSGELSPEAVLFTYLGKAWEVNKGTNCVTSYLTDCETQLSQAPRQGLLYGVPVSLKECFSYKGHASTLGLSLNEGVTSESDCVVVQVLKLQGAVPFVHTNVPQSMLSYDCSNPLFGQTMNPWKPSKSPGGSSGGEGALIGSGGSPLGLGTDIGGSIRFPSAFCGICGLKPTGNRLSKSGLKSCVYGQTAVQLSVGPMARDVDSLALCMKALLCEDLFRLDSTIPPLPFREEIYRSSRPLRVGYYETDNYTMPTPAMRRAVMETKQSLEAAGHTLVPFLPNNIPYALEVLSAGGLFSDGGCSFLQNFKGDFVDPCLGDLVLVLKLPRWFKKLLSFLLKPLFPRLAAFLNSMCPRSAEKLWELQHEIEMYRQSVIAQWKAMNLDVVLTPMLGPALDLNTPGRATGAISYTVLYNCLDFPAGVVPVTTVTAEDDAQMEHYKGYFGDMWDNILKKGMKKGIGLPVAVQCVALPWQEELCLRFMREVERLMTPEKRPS
Protocol: as §1, §2

Compound	inhibition at 1 µM (MAGL) [%]	inhibition at 1 µM (ABHD6) [%]	inhibition at 1 µM (FAAH) [%]
O=C(OC(C(F)(F)F)C(F)(F)F)N1CC2CN(Cc3ccc(C(=O)N4CCOCC4)c(OC(F)(F)F)c3)CC2C1 (centres unmarked) [Example 191, 1,1,1,3,3,3-hexafluoropropan-2-yl 5-(4-(morpholine-4-carbonyl)-3-(trifluoromethoxy)benzyl)hexahydropyrrolo[3,4-c]pyrrole-2(1H)-carboxylate]	< 25	< 25	< 25
O=C(ON1C(=O)CCC1=O)N1CC2CN(Cc3ccc(Cl)cc3N3CCN4CCC[C@@H]4C3)CC2C1 (stereo partly drawn) [Example 109, 2,5-Dioxopyrrolidin-1-yl 5-(4-chloro-2-((R)-hexahydropyrrolo[1,2-a]pyrazin-2(1H)-yl)benzyl)-hexahydropyrrolo[3,4-c]pyrrole-2(1H)-carboxylate]	< 25	< 25	< 25
O=C(ON1C(=O)CCC1=O)N1CC2CN(Cc3ccc(C(=O)N4CCC4)cc3F)CC2C1 (centres unmarked) [Example 168, 2,5-dioxopyrrolidin-1-yl5-(4-(azetidine-1-carbonyl)-2-fluorobenzyl)-hexahydropyrrolo[3,4-c]pyrrole-2(1H)-carboxylate]		< 25	
CC(=O)N1CCC(c2nn(C)cc2CN2CC3CN(C(=O)OC(C(F)(F)F)C(F)(F)F)CC3C2)CC1 (centres unmarked) [Example 52, 1,1,1,3,3,3-Hexafluoropropan-2-yl 5-[[3-(1-acetylpiperidin-4-yl)-1-methyl-1H-pyrazol-4-yl]methyl]-octahydropyrrolo[3,4-c]pyrrole-2-carboxylate]	25 to 75	< 25	< 25
Cc1cccc(CN2CC3CN(C(=O)ON4C(=O)CCC4=O)CC3C2)c1N1CCN(C)CC1 (centres unmarked) [Example 138, 2,5-dioxopyrrolidin-1-yl 5-[[3-methyl-2-(4-methylpiperazin-1-yl)phenyl]methyl]-octahydropyrrolo[3,4-c]pyrrole-2-carboxylate]	< 25	< 25	< 25
Cc1c(CN2CC3CN(C(=O)ON4C(=O)CCC4=O)CC3C2)cccc1N1CCN(C)CC1 (centres unmarked) [Example 145]	< 25	< 25	< 25
Cn1nc(-c2cccc(F)c2)cc1CN1CC2CN(C(=O)ON3C(=O)CCC3=O)CC2C1 (centres unmarked) [Example 198, 2,5-dioxopyrrolidin-1-yl 5-((3-(3-fluorophenyl)-1-methyl-1H-pyrazol-5-yl)methyl)hexahydropyrrolo[3,4-c]pyrrole-2(1H)-carboxylate]	< 25	< 25	< 25
Cn1cc(CN2CC3CN(C(=O)ON4C(=O)CCC4=O)CC3C2)c(-c2ccccc2Cl)n1 (centres unmarked) [Example 115, 2,5-Dioxopyrrolidin-1-yl 5-[[3-(2-chlorophenyl)-1-methyl-1H-pyrazol-4-yl]methyl]-octahydropyrrolo[3,4-c]pyrrole-2-carboxylate]	25 to 75	< 25	< 25
CC(=O)N1CCN(c2cc(Cl)ccc2CN2CC3CN(C(=O)ON4C(=O)CCC4=O)CC3C2)CC1 (centres unmarked) [Example 96, 2,5-Dioxopyrrolidin-1-yl 5-[[2-(4-acetylpiperazin-1-yl)-4-chlorophenyl]methyl]-octahydropyrrolo[3,4-c]pyrrole-2-carboxylate]	< 25	< 25	< 25
CCn1cc(CN2CC3CN(C(=O)OC(C(F)(F)F)C(F)(F)F)CC3C2)c(-c2ccc(N3CCOCC3)cc2)n1 (centres unmarked) [Example 68, 1,1,1,3,3,3-Hexafluoropropan-2-yl 5-([1-ethyl-3-[4-(morpholin-4-yl)phenyl]-1H-pyrazol-4-yl]methyl)-octahydropyrrolo[3,4-c]pyrrole-2-carboxylate]	> 75	< 25	< 25
CC(C)c1cc(CN2CC3CN(C(=O)ON4C(=O)CCC4=O)CC3C2)n(C2CCCCC2)n1 (centres unmarked) [Example 123, 2,5-Dioxopyrrolidin-1-yl 5-[[1-cyclohexyl-3-(propan-2-yl)-1H-pyrazol-5-yl]methyl]-octahydropyrrolo[3,4-c]pyrrole-2-carboxylate]	25 to 75	> 75	< 25
O=C(ON1C(=O)CCC1=O)N1CC2CN(Cc3ccc(Cl)cc3N3CCOCC3)CC2C1 (centres unmarked) [Example 93, 2,5-Dioxopyrrolidin-1-yl 5-[[4-chloro-2-(morpholin-4-yl)phenyl]methyl]-octahydropyrrolo[3,4-c]pyrrole-2-carboxylate]	25 to 75	25 to 75	< 25
O=C(OC(C(F)(F)F)C(F)(F)F)N1CC2CN(Cc3ccc(Cl)cc3N3CCOCC3)CC2C1 (centres unmarked) [Example 18, 1,1,1,3,3,3-Hexafluoropropan-2-yl 5-[[4-chloro-2-(morpholin-4-yl)phenyl]methyl]-octahydropyrrolo[3,4-c]pyrrole-2-carboxylate]	> 75	25 to 75	25 to 75
CC(=O)N1CCN(c2ccc(CN3CC4CN(C(=O)ON5C(=O)CCC5=O)CC4C3)c(F)c2)CC1 (centres unmarked) [Example 101, 2,5-Dioxopyrrolidin-1-yl 5-[[4-(4-acetylpiperazin-1-yl)-2-fluorophenyl]methyl]-octahydropyrrolo[3,4-c]pyrrole-2-carboxylate]	< 25	< 25	< 25
Cc1cc(CN2CC3CN(C(=O)ON4C(=O)CCC4=O)CC3C2)n(C(C)C)n1 (centres unmarked) [Example 121, 2,5-Dioxopyrrolidin-1-yl 5-[[3-methyl-1-(propan-2-yl)-1H-pyrazol-5-yl]methyl]-octahydropyrrolo[3,4-c]pyrrole-2-carboxylate]	< 25	< 25	< 25
CC(=O)N1CCN(c2ccc(CN3CC4CN(C(=O)ON5C(=O)CCC5=O)CC4C3)c(Cl)c2)CC1 (centres unmarked) [Example 103, 2,5-Dioxopyrrolidin-1-yl 5-[[4-(4-acetylpiperazin-1-yl)-2-chlorophenyl]methyl]-octahydropyrrolo[3,4-c]pyrrole-2-carboxylate]	< 25	< 25	< 25
Cc1c(CN2CC3CN(C(=O)ON4C(=O)CCC4=O)CC3C2)cccc1N1CCN(S(C)(=O)=O)CC1 (centres unmarked) [Example 141, 2,5-dioxopyrrolidin-1-yl 5-[[3-(4-methanesulfonylpiperazin-1-yl)-2-methylphenyl]methyl]-octahydropyrrolo[3,4-c]pyrrole-2-carboxylate]	25 to 75	< 25	< 25
O=C(ON1C(=O)CCC1=O)N1CC2CN(Cc3ccc(C(=O)N4CCCC4)cc3Cl)CC2C1 (centres unmarked) [Example 164, 2,5-dioxopyrrolidin-1-yl 5-(2-chloro-4-(pyrrolidine-1-carbonyl)benzyl)-hexahydropyrrolo[3,4-c]pyrrole-2(1H)-carboxylate]	25 to 75	25 to 75	< 25
O=C(ON1C(=O)CCC1=O)N1CC2CN(Cc3ccc(C(=O)N4CCCC4)cc3F)CC2C1 (centres unmarked) [Example 167, 2,5-dioxopyrrolidin-1-yl5-(2-fluoro-4-(pyrrolidine-1-carbonyl)benzyl)-hexahydropyrrolo[3,4-c]pyrrole-2(1H)-carboxylate]		< 25	
